System: P. falciparum NF54 strain
Assay: [3H]-hypoxanthine incorporation assay, asexual blood stage
Type: cell-based, Plasmodium falciparum
Settings: for IC50: Plasmodium falciparum, NF54, asexual blood stage, mean ± s.d., read-out: PfNF54 IC50 ± s.d.
Protocol: P. falciparum asexual blood stage parasites were cultured in human red blood cells (RBC, Blutspende SRK, Zurich) at a hematocrit of 5% in RPMI 1640 medium. The RPMI 1640 medium (ThermoFisher Scientific #51800−043) was supplemented with the following: 24 mM NaHCO3 (pH 7.3, Sigma-Aldrich #31437−500G-R), 25 mM Hepes (Sigma-Aldrich #H4034−500G), 0.36 mM hypoxanthine (Sigma-Aldrich # H9377−25G), 100 µg mL^-1 neomycin (Sigma-Aldrich #N6386−100G) and 0.5% Albumax II (Thermo Fisher #11021−045). Additionally, 2 mM choline chloride (279 mg/L, Sigma-Aldrich #C7527−100G) was added to the culture to block the induction of sexual commitment as described. ^[31^] The RPMI 1640 medium and components were dissolved in water (Milli-Q purified), stirred for at least 3 h, and then sterile filtered (0.22 μm pore size) with a bottle top filter (Corning # 431118). Parasite cultures were maintained in an atmosphere of 3% O2, 4% CO2, and 93% N2 in air-tight chambers at 37 °C. The [^3H]-hypoxanthine incorporation assay was used to test compound activity in the specific parasite lines as described.^[32^] Briefly, compounds were dissolved in DMSO (10 mM) and diluted in a hypoxanthine-free culture medium. A limiting dilution was performed over a 64-fold range (6-step twofold dilution) in a 96-well plate in duplicates. For every starting concentration, a limiting dilution was performed over a 64-fold range (6-step twofold dilution) in a 96-well plate in two biological duplicates. Parasites were added at 100 µL to each well containing the compound to obtain a final parasitemia of 0.3% and haematocrit of 1.25%. The plates were incubated for 48 h before 0.25 µCi of [^3H]-hypoxanthine was added per well for an additional 24 h. Parasites were harvested on a glass-fiber filter with a Microbeta FilterMate cell harvester (Perkin Elmer, Waltham, USA) and radioactivity was counted using a MicroBeta2 liquid scintillation counter (Perkin Elmer, Waltham, US). […] The fifty percent inhibitory concentration (IC50) was calculated by using nonlinear, four parameter (variable slope) curve fitting as described ^[33^] after importing into GraphPad Prism (version 8.3.0).

With `CCS(=O)(=O)c1ccc(O)c(NC(=O)c2cccc(Oc3ccccc3)c2)c1` [Compound 7, N-(5-(Ethylsulfonyl)-2-hydroxyphenyl)-3-phenoxybenzamide] the IC50 was 217 ± 42.4 nM.

`O=C(Nc1cc(S(=O)(=O)NCc2ccccc2)ccc1O)c1cccc(Oc2ccccc2)c1` [Compound 14, N-(5-(N-Benzylsulfamoyl)-2-hydroxyphenyl)-3-phenoxybenzamide] gave an IC50 of 2780 ± 389 nM.

In the case of `CN(C(=O)c1cccc(Oc2ccccc2)c1)c1cc(S(=O)(=O)N2CCCC2)ccc1O` [Compound 4, N-(2-Hydroxy-5-(pyrrolidin-1-ylsulfonyl)phenyl)-N-methyl-3-phenoxybenzamide], the IC50 is reported as > 10000 nM.

For `O=C(Nc1cc(S(=O)(=O)NCC2CCCCC2)ccc1O)c1cccc(Oc2ccccc2)c1` [Compound 13, N-(5-(N-(Cyclohexylmethyl)sulfamoyl)-2-hydroxyphenyl)-3-phenoxybenzamide], the IC50 was > 10000 nM.

`O=C(Nc1cc(S(=O)(=O)N2CCCC2)ccc1O)c1cccc(Oc2cc(C(F)(F)F)ccn2)c1` [Compound 23, N-(2-Hydroxy-5-(pyrrolidin-1-ylsulfonyl)phenyl)-3-((4-(trifluoromethyl)pyridin-2-yl)oxy)benzamide] was tested, and the “fold increased activity compared to the initial hit molecule 1” value (PfNF54 IC50) was “about 8 fold” and the IC50 was 69 nM.

With `O=C(Nc1cccc(S(=O)(=O)N2CCCC2)c1)c1cccc(Oc2ccccc2)c1` [Compound 5, 3-Phenoxy-N-(3-(pyrrolidin-1-ylsulfonyl)phenyl)benzamide] the IC50 was 4930 ± 97.8 nM.

Molecule `CN(Cc1ccc(O)c(NC(=O)c2cccc(Oc3cc(C(F)(F)F)ccn3)c2)c1)C1CCCCC1` [Compound 29, N-(5-((Cyclohexyl(methyl)amino)methyl)-2-hydroxyphenyl)-3-((4-(trifluoromethyl)pyridin-2-yl)oxy)benzamide] has an IC50 of 7.6 ± 1.8 nM.

Molecule `Oc1ccc(CN2CCOCC2)cc1NCc1cccc(Oc2cc(C(F)(F)F)ccn2)c1` [Compound 36, 4-(Morpholinomethyl)-2-((3-((4-(trifluoromethyl)pyridin-2-yl)oxy)benzyl)amino)phenol] has an IC50 of 808 ± 172 nM.

For `O=C(Nc1cc(S(=O)(=O)N2CCCC2)ccc1O)c1cccc(Oc2cccc(C(F)(F)F)n2)c1` [Compound 21, N-(2-Hydroxy-5-(pyrrolidin-1-ylsulfonyl)phenyl)-3-((6-(trifluoromethyl)pyridin-2-yl)oxy)benzamide], the IC50 was > 10000 nM.

Work on `Cc1cc(C(F)(F)F)cc(Oc2cccc(C(=O)Nc3cc(S(=O)(=O)N4CCCC4)ccc3O)c2)n1` [Compound 22, N-(2-hydroxy-5-(pyrrolidin-1-ylsulfonyl)phenyl)-3-((6-methyl-4-(trifluoromethyl)pyridin-2-yl)oxy)benzamide] yielded an IC50 of 216 ± 32.3 nM.

For `COc1ccc(S(=O)(=O)N2CCCC2)cc1NC(=O)c1cccc(Oc2ccccc2)c1` [Compound 2, N-(2-Methoxy-5-(pyrrolidin-1-ylsulfonyl)phenyl)-3-phenoxybenzamide], the IC50 was > 10000 nM.

In the case of `COc1ccc(S(=O)(=O)N2CCCC2)cc1N(C)C(=O)c1cccc(Oc2ccccc2)c1` [Compound 3, N-(2-methoxy-5-(pyrrolidin-1-ylsulfonyl)phenyl)-N-methyl-3-phenoxybenzamide], the IC50 is reported as > 10000 nM.

`CC1CCN(S(=O)(=O)c2ccc(O)c(NC(=O)c3cccc(Oc4ccccc4)c3)c2)CC1` [Compound 11, N-(2-Hydroxy-5-((4-methylpiperidin-1-yl)sulfonyl)phenyl)-3-phenoxybenzamide] gave an IC50 of 1030 ± 116 nM.

In the case of `O=C(Nc1cc(S(=O)(=O)N2CCOCC2)ccc1O)c1cccc(Oc2ccccc2)c1` [Compound 12, N-(2-Hydroxy-5-(morpholinosulfonyl)phenyl)-3-phenoxybenzamide], the IC50 is reported as 197 ± 28 nM.

For `CC(C)c1ccc(O)c(NC(=O)c2cccc(Oc3cc(C(F)(F)F)ccn3)c2)c1` [Compound 25, N-(2-Hydroxy-5-isopropylphenyl)-3-((4-(trifluoromethyl)pyridin-2-yl)oxy)benzamide], the IC50 was 34 ± 4 nM.

`Cc1ccc(C(C)C)cc1Oc1cccc(C(=O)Nc2cc(S(=O)(=O)N3CCCC3)ccc2O)c1` [Compound 18, N-(2-hydroxy-5-(pyrrolidin-1-ylsulfonyl)phenyl)-3-(5-isopropyl-2-methylphenoxy)benzamide] gave an IC50 of 1500 ± 81.2 nM.

With `O=C(Nc1cc(S(=O)(=O)N2CCCC2)ccc1O)c1ccc(Oc2ccccc2)cc1` [Compound 15, N-(2-Hydroxy-5-(pyrrolidin-1-ylsulfonyl)phenyl)-4-phenoxybenzamide] the IC50 was 539 ± 92.2 nM.

In the case of `NS(=O)(=O)c1ccc(O)c(NC(=O)c2cccc(Oc3ccccc3)c2)c1` [Compound 6, N-(2-Hydroxy-5-sulfamoylphenyl)-3-phenoxybenzamide], the IC50 is reported as 777 ± 86 nM.

`CCN(CC)CCCNCc1ccc(O)c(NC(=O)c2cccc(Oc3cc(C(F)(F)F)ccn3)c2)c1` [Compound 28, N-(5-(((3-(diEthylamino)propyl)amino)methyl)-2-hydroxyphenyl)-3-((4-(trifluoromethyl)pyridin-2-yl)oxy)benzamide] was tested, and the IC50 was 41 ± 17.2 nM.

`O=C(Nc1cc(S(=O)(=O)N2CCCC2)ccc1O)c1cccc(Oc2ccc(Cl)c(C(F)(F)F)c2)c1` [Compound 17, 3-(4-Chloro-3-(trifluoromethyl)phenoxy)-N-(2-hydroxy-5-(pyrrolidin-1-ylsulfonyl)phenyl)benzamide] showed an IC50 of 2315 ± 8.5 nM.

In the case of `O=C(Nc1cc(S(=O)(=O)N2CCCC2)ccc1O)c1cccc(Oc2ccccn2)c1` [Compound 19, N-(2-Hydroxy-5-(pyrrolidin-1-ylsulfonyl)phenyl)-3-(pyridin-2-yloxy)benzamide], the IC50 is reported as 1450 ± 80 nM.

`O=C(Nc1cc(-n2cnnc2)ccc1O)c1cccc(Oc2cc(C(F)(F)F)ccn2)c1` [Compound 26, N-(2-Hydroxy-5-(4H-1,2,4-triazol-4-yl)phenyl)-3-((4-(trifluoromethyl)pyridin-2-yl)oxy)benzamide] gave an IC50 of 158 ± 15.6 nM.

`O=C(Nc1cc(CN2CCOCC2)ccn1)c1cccc(Oc2cc(C(F)(F)F)ccn2)c1` [Compound 35, N-(4-(Morpholinomethyl)pyridin-2-yl)-3-((4-(trifluoromethyl)pyridin-2-yl)oxy)benzamide] was tested, and the IC50 was > 10000 nM.

Work on `O=C(Nc1cc(S(=O)(=O)N2CCCC2)ccc1O)c1cccc(Oc2cccc(Cl)n2)c1` [Compound 20, 3-((6-Chloropyridin-2-yl)oxy)-N-(2-hydroxy-5-(pyrrolidin-1-ylsulfonyl)phenyl)benzamide] yielded an IC50 of 746 ± 21.3 nM.

With `O=C(Nc1cc(S(=O)(=O)N2CCCC2)ccc1O)c1cccc(Oc2cccc(F)c2)c1` [Compound 16, 3-(3-Fluorophenoxy)-N-(2-hydroxy-5-(pyrrolidin-1-ylsulfonyl)phenyl)benzamide] the IC50 was 361 ± 83 nM.

Molecule `CC1(C)CCN(S(=O)(=O)c2ccc(O)c(NC(=O)c3cccc(Oc4ccccc4)c3)c2)C1` [Compound 10, N-(5-((3,3-diMethylpyrrolidin-1-yl)sulfonyl)-2-hydroxyphenyl)-3-phenoxybenzamide] has an IC50 of 1410 ± 147 nM.

Molecule `O=C(Nc1cc(S(=O)(=O)N2CCCCC2)ccc1O)c1cccc(Oc2ccccc2)c1` [Compound 9, N-(2-Hydroxy-5-(piperidin-1-ylsulfonyl)phenyl)-3-phenoxybenzamide] has an IC50 of 574 ± 66.5 nM.

In the case of `Oc1ccc(CN2CCOCC2)cc1-n1cc(-c2cccc(Oc3cc(C(F)(F)F)ccn3)c2)nn1` [Compound 37, 4-(Morpholinomethyl)-2-(4-(3-((4-(trifluoromethyl)pyridin-2-yl)oxy)phenyl)-1H-1,2,3-triazol-1-yl)phenol], the IC50 is reported as 21 ± 1.13 nM.

In the case of `CCCCNS(=O)(=O)c1ccc(O)c(NC(=O)c2cccc(Oc3ccccc3)c2)c1` [Compound 8, N-(5-(N-Butylsulfamoyl)-2-hydroxyphenyl)-3-phenoxybenzamide], the IC50 is reported as 1910 ± 254 nM.

From PMC12668308, “A Novel Antimalarial Agent that Inhibits Protein Synthesis in Plasmodium falciparum” (Angewandte Chemie (International Ed. in English), 2025)
